Experimental data as given in PubChem BioAssay AID248 (DTP/NCI, 2004).
Where “and” joins values, the source holds several entries; their conditions need not be identical. Equal entries are not always repeated. Inconclusive results and toxic doses are left out.

Tested on: L1210 leukemia ip in BDF1 mice, survival T/C
Test: NCI In Vivo Anticancer Drug Screen. Data for tumor model L1210 Leukemia (intraperitoneal) in B6D2F1 (BDF1) mice
Conditions: endpoint: mean survival time, higher = longer survival
Outline: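 Tumor cells were implanted, animals were treated, and survival was followed. The result divides the treated measurement by the vehicle-control measurement.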

[1] = dose: 100.0 mg/kg/injection, schedule: Q04DX003 (ip), vehicle: Klucel (hydroxypropylcellulose) (HPC)
[2] = dose: 200.0 mg/kg/injection, schedule: Q04DX003 (ip), vehicle: Klucel (hydroxypropylcellulose) (HPC)
[3] = dose: 100.0 mg/kg/injection, schedule: Q01DX001 (ip), vehicle: saline
[4] = dose: 200.0 mg/kg/injection, schedule: Q01DX001 (ip), vehicle: saline
[5] = dose: 400.0 mg/kg/injection, schedule: Q01DX001 (ip), vehicle: saline
[6] = dose: 100.0 mg/kg/injection, schedule: Q04DX003 (ip), vehicle: saline with Tween-80
[7] = dose: 200.0 mg/kg/injection, schedule: Q04DX003 (ip), vehicle: saline with Tween-80
[8] = dose: 400.0 mg/kg/injection, schedule: Q04DX003 (ip), vehicle: saline with Tween-80
[9] = dose: 100.0 mg/kg/injection, schedule: Q01DX009 (ip), vehicle: saline
[10] = dose: 100.0 mg/kg/injection, schedule: Q04DX003 (ip), vehicle: saline
[11] = dose: 200.0 mg/kg/injection, schedule: Q01DX009 (ip), vehicle: saline
[12] = dose: 200.0 mg/kg/injection, schedule: Q04DX003 (ip), vehicle: saline
[13] = dose: 400.0 mg/kg/injection, schedule: Q01DX009 (ip), vehicle: saline
[14] = dose: 400.0 mg/kg/injection, schedule: Q04DX003 (ip), vehicle: Klucel (hydroxypropylcellulose) (HPC)
[15] = dose: 50.0 mg/kg/injection, schedule: Q01DX009 (ip), vehicle: saline
[16] = dose: 100.0 mg/kg/injection, schedule: Q01DX009 (ip), vehicle: saline with Tween-80
[17] = dose: 200.0 mg/kg/injection, schedule: Q01DX009 (ip), vehicle: saline with Tween-80
[18] = dose: 400.0 mg/kg/injection, schedule: Q01DX009 (ip), vehicle: saline with Tween-80

NC(=S)N/N=C(\c1ccccc1)c1ccccn1
T/C (dose: 12.5 mg/kg/injection, schedule: Q01DX009 (ip), vehicle: gum acacia): 101 % of control
T/C (dose: 25.0 mg/kg/injection, schedule: Q01DX001 (ip), vehicle: gum acacia): 100 % of control
T/C (dose: 25.0 mg/kg/injection, schedule: Q01DX009 (ip), vehicle: gum acacia): 95 % of control
T/C (dose: 25.0 mg/kg/injection, schedule: Q04DX003 (ip), vehicle: gum acacia): 105 % of control
T/C (dose: 50.0 mg/kg/injection, schedule: Q01DX001 (ip), vehicle: gum acacia): 106 % of control
T/C (dose: 50.0 mg/kg/injection, schedule: Q01DX009 (ip), vehicle: gum acacia): 93 % of control
T/C (dose: 50.0 mg/kg/injection, schedule: Q04DX003 (ip), vehicle: gum acacia): 100 % of control
T/C (dose: 100.0 mg/kg/injection, schedule: Q01DX001 (ip), vehicle: gum acacia): 95 % of control

CCOc1ccc(NC(=O)Nc2cccc(C(F)(F)F)c2)cc1
T/C (dose: 100.0 mg/kg/injection, schedule: Q01DX009 (ip), vehicle: Klucel (hydroxypropylcellulose) (HPC)): 91 % of control
T/C (dose: 200.0 mg/kg/injection, schedule: Q01DX009 (ip), vehicle: Klucel (hydroxypropylcellulose) (HPC)): 96 % of control
T/C (dose: 400.0 mg/kg/injection, schedule: Q01DX009 (ip), vehicle: Klucel (hydroxypropylcellulose) (HPC)): 93 % of control

C=C(C)C(Br)=C(C)C
T/C (dose: 100.0 mg/kg/injection, schedule: Q01DX001 (ip), vehicle: DMSO): 96 % of control

OC(CCl)CNc1ccc(-c2ccccc2)cc1 (stereo not given)
T/C (dose: 100.0 mg/kg/injection, schedule: Q01DX001 (ip), vehicle: other): 94 % of control
T/C [1]: 100 % of control
T/C (dose: 200.0 mg/kg/injection, schedule: Q01DX001 (ip), vehicle: other): 92 % of control
T/C [2]: 86 % of control
T/C (dose: 400.0 mg/kg/injection, schedule: Q01DX001 (ip), vehicle: other): 97 % of control

CCOSc1ccc([N+](=O)[O-])cc1[N+](=O)[O-]
T/C (dose: 50.0 mg/kg/injection, schedule: Q01DX001 (ip), vehicle: saline): 90 % of control
T/C [3]: 93 % of control
T/C [4]: 90 % of control
T/C [5]: 95 % of control

COc1ccc(OC)c(/C=C(C(=O)O)/C(=C/c2cc(OC)ccc2OC)C(=O)O)c1
T/C [6]: 105 % of control
T/C [7]: 102 % of control
T/C [8]: 97 % of control

ClCCC1CNCCN1 (stereo not given)
T/C [9]: 87 % of control
T/C [10]: 96 % of control
T/C [11]: 89 % of control
T/C [12]: 96 % of control
T/C [13]: 89 % of control
T/C (dose: 400.0 mg/kg/injection, schedule: Q04DX003 (ip), vehicle: saline): 103 % of control

CC(=O)NC1CCCC(O)C1 (stereo not given)
T/C [9]: 87 % of control
T/C [11]: 92 % of control
T/C [13]: 92 % of control

CC1=NN(c2ccccc2)C(=O)CC1
T/C [1]: 106 % of control
T/C [2]: 100 % of control
T/C [14]: 105 % of control

C#CC[N+](CC#C)(CC#C)CC#C
T/C (dose: 25.0 mg/kg/injection, schedule: Q01DX009 (ip), vehicle: saline): 96 % of control
T/C [15]: 102 % of control
T/C [9]: 104 % of control

CN1CCN(C(=O)Cc2c[nH]c3ccccc23)CC1
T/C (dose: 6.25 mg/kg/injection, schedule: Q01DX009 (ip), vehicle: saline with Tween-80): 104 % of control
T/C (dose: 12.5 mg/kg/injection, schedule: Q01DX009 (ip), vehicle: saline with Tween-80): 100 % of control
T/C (dose: 25.0 mg/kg/injection, schedule: Q01DX009 (ip), vehicle: saline with Tween-80): 120 % of control and 91 % of control
T/C (dose: 25.0 mg/kg/injection, schedule: Q04DX003 (ip), vehicle: saline with Tween-80): 100 % of control
T/C (dose: 50.0 mg/kg/injection, schedule: Q01DX009 (ip), vehicle: saline with Tween-80): 95 % of control and 117 % of control
T/C (dose: 50.0 mg/kg/injection, schedule: Q04DX003 (ip), vehicle: saline with Tween-80): 102 % of control
T/C [16]: 115 % of control and 88 % of control
T/C [6]: 103 % of control and 108 % of control

COc1ccc(OC)c(NC(=O)c2ccc(Cl)c(Cl)c2)c1
T/C (dose: 100.0 mg/kg/injection, schedule: Q01DX001 (ip), vehicle: saline with Tween-80): 106 % of control
T/C [16]: 93 % of control and 98 % of control
T/C (dose: 100.0 mg/kg/injection, schedule: Q04DX002 (ip), vehicle: saline with Tween-80): 97 % of control and 99 % of control
T/C [6]: 105 % of control
T/C (dose: 200.0 mg/kg/injection, schedule: Q01DX001 (ip), vehicle: saline with Tween-80): 101 % of control
T/C [17]: 97 % of control and 102 % of control
T/C (dose: 200.0 mg/kg/injection, schedule: Q04DX002 (ip), vehicle: saline with Tween-80): 108 % of control and 89 % of control
T/C [7]: 108 % of control
T/C (dose: 400.0 mg/kg/injection, schedule: Q01DX001 (ip), vehicle: saline with Tween-80): 108 % of control
T/C [18]: 111 % of control
T/C (dose: 400.0 mg/kg/injection, schedule: Q04DX002 (ip), vehicle: saline with Tween-80): 104 % of control and 91 % of control
T/C [8]: 89 % of control

CC(C)(C)OC(=O)N1Cc2cc3ccccc3nc2C1
T/C [15]: 98 % of control
T/C [9]: 94 % of control
T/C [10]: 96 % of control
T/C [12]: 100 % of control

CNC(=O)c1ccc(NC(=O)Nc2ccc(C3=NCCCN3)cc2)cc1NC(=O)Nc1ccc(C2=NCCCN2)cc1
T/C (dose: 11.5 mg/kg/injection, schedule: Q01DX Z (ip), vehicle: carboxymethylcellulose (CMC)): 108 % of control
T/C (dose: 23.0 mg/kg/injection, schedule: Q01DX Z (ip), vehicle: carboxymethylcellulose (CMC)): 107 % of control
T/C (dose: 46.0 mg/kg/injection, schedule: Q01DX Z (ip), vehicle: carboxymethylcellulose (CMC)): 166 % of control
T/C (dose: 62.0 mg/kg/injection, schedule: Q01DX Z (oral), vehicle: carboxymethylcellulose (CMC)): 111 % of control
T/C (dose: 92.0 mg/kg/injection, schedule: Q01DX Z (ip), vehicle: carboxymethylcellulose (CMC)): 177 % of control
T/C (dose: 125.0 mg/kg/injection, schedule: Q01DX Z (oral), vehicle: carboxymethylcellulose (CMC)): 109 % of control
T/C (dose: 250.0 mg/kg/injection, schedule: Q01DX Z (oral), vehicle: carboxymethylcellulose (CMC)): 108 % of control
T/C (dose: 500.0 mg/kg/injection, schedule: Q01DX Z (oral), vehicle: carboxymethylcellulose (CMC)): 108 % of control

COc1ccc(Br)cc1CCC=O
T/C (dose: 100.0 mg/kg/injection, schedule: Q01DX001 (ip), vehicle: carboxymethylcellulose (CMC)): 100 % of control
T/C (dose: 200.0 mg/kg/injection, schedule: Q01DX001 (ip), vehicle: carboxymethylcellulose (CMC)): 100 % of control
T/C (dose: 400.0 mg/kg/injection, schedule: Q01DX001 (ip), vehicle: carboxymethylcellulose (CMC)): 100 % of control

O=C1c2ccccc2C(=O)c2c(NC(=O)C(Cl)CCl)cccc21 (stereo not given)
T/C (dose: 75.0 mg/kg/injection, schedule: Q01DX001 (ip), vehicle: saline): 94 % of control
T/C (dose: 150.0 mg/kg/injection, schedule: Q01DX001 (ip), vehicle: saline): 90 % of control and 92 % of control
T/C (dose: 300.0 mg/kg/injection, schedule: Q01DX001 (ip), vehicle: saline): 97 % of control

CCCCCCCCCCS(=O)(=O)CC(=O)O
T/C [1]: 100 % of control
T/C [6]: 100 % of control
T/C [2]: 90 % of control
T/C [7]: 98 % of control

CS(=O)(=O)c1ccc(Br)cc1
T/C [16]: 103 % of control
T/C [6]: 90 % of control
T/C [17]: 102 % of control
T/C [7]: 98 % of control
T/C [18]: 102 % of control
T/C [8]: 96 % of control

O=C(COc1ccc(Cl)c(Cl)c1)NCc1ccc[n+](Cc2ccc(Cl)cc2S(=O)(=O)F)c1
T/C [6]: 100 % of control
T/C [7]: 106 % of control

CCOC(=O)C1CCC(NC(=O)c2ccccc2)CC1 (stereo not given)
T/C (dose: 100.0 mg/kg/injection, schedule: Q01DX001 (ip), vehicle: Klucel (hydroxypropylcellulose) (HPC)): 93 % of control
T/C [1]: 100 % of control
T/C (dose: 200.0 mg/kg/injection, schedule: Q01DX001 (ip), vehicle: Klucel (hydroxypropylcellulose) (HPC)): 93 % of control
T/C [2]: 98 % of control
T/C (dose: 400.0 mg/kg/injection, schedule: Q01DX001 (ip), vehicle: Klucel (hydroxypropylcellulose) (HPC)): 93 % of control
T/C [14]: 94 % of control

c1cncc(-c2ncnc3c2Cc2ccccc2-3)c1
T/C [1]: 97 % of control
T/C [2]: 111 % of control

CC(C)OC(=O)C(C)(OC(=O)c1ccccc1)c1ccccc1 (stereo not given)
T/C [3]: 94 % of control
T/C [4]: 91 % of control
T/C [5]: 88 % of control
